Test results published in patent US5750702A (priority 1996, dated 1998).
pKi: −log10 of the molar value.

Biological target: GABAa receptor
Test: GABAa receptor binding assay (displacement of 3H-RO15-1788 [3H-Flumazenil], rat cortical tissue)
Conditions: nonspecific binding with diazepam
Description: The pharmaceutical utility of compounds of this invention are indicated by the following assay for GABAa receptor binding activity.
Assays are carried out as described in Thomas and Tallman (J. Bio. Chem. 156: 9838-9842 J. Neurosci. 3: 433-440, 1983). Rat cortical tissue is dissected and homogenized in 25 volumes (w/v) of 0.05M Tris HCl buffer (pH 7.4 at 4° C.). The tissue homogenate is centrifuged in the cold (4°) at 20,000×g for 20'. The supernatant is decanted and the pellet is rehomogenized in the same volume of buffer and again centrifuged at 20,000×g. The supernatant is decanted and the pellet is frozen at -20° C. overnight. The pellet is then thawed and rehomogenized in 25 volume (original wt/vol) of buffer and the procedure is carried out twice. The pellet is finally resuspended in 50 volumes (w/vol of 0.05M Tris HCl buffer (pH 7.4 at […]).
Incubations contain […] of tissue homogenate, […] of radioligand 0.5 nM (^3 H-RO15-1788 [^3 H-Flumazenil] specific activity 80 Ci/mmol), drug or blocker and buffer to a total volume of […]. Incubations are carried for 30 min at 4° C. then are rapidly filtered through GFB filters to separate free and bound ligand. Filters are washed twice with fresh 0.05M Tris HCl buffer (pH 7.4 at 4° C.) and counted in a liquid scintillation counter. 1.0 mM diazepam is added to some tubes to determine nonspecific binding. Data are collected in triplicate determinations, averaged and % inhibition of total specific binding is calculated. Total Specific Binding=Total-Nonspecific. In some cases, the amounts of unlabeled drugs is varied and total displacement curves of binding are carried out. Data are converted to Ki values.

[1] = Table 2, 0.5 nM 3H-RO15-1788, 30 min at 4° C.
[2] = Table 3, 0.5 nM 3H-RO15-1788, 30 min at 4° C.

SMILES	pKi [1]	pKi [2]
COc1ccc(NC(=O)c2c[nH]c3c2C(=O)CCC3)cc1 [Compound 1, N-(4-methoxyphenyl)-4-oxo-4,5,6,7-tetrahydro-1H-indole-3-carboxamide]	8.40	–
COc1ccc(NC(=O)c2c[nH]c3cccc(O)c23)c(F)c1 [Compound 2, N-(2-fluoro-4-methoxyphenyl)-4-hydroxy-1H-indole-3-carboxamide]	6.37	–
COc1ccc(NC(=O)c2c[nH]c3c2C(=O)CCC3)c(F)c1 [Compound 6, N-(2-Fluoro-4-methoxyphenyl)-4-oxo-4,5,6,7-tetrahydro-1H-indole-3-carboxamide]	9.00	–
COc1ccc(NC(=O)c2c[nH]c3cccc(OC)c23)cc1 [Compound 8, N-(4-Methoxyphenyl)-4-methoxy-1H-indole-3-carboxamide]	7.60	–
CC(=O)Nc1ccc(NC(=O)c2c[nH]c3c2C(=O)CCC3)cc1 [Compound 12, N-(4-Acetamidophenyl)-4-oxo-4,5,6,7-tetrahydro-1H-indole-3-carboxamide]	7.55	–
COc1ccc(NC(=O)c2c[nH]c3cccc(OCc4ccccc4)c23)c(F)c1 [Compound 14, N-(2-Fluoro-4-methoxyphenyl)-4-benzyloxy-1H-indole-3-carboxamide]	6.88	–
CC(C)Oc1ccc(NC(=O)c2c[nH]c3c2C(=O)CCC3)cc1 [Compound 22, N-(4-Isopropoxyphenyl)-4-oxo-4,5,6,7-tetrahydro-1H-indole-3-carboxamide]	–	7.28
COc1ccc(NC(=O)c2c[nH]c3c2C(=O)CCC3)cc1F [Compound 26, N-(3-Fluoro-4-methoxyphenyl)-4-oxo-4,5,6,7-tetrahydro-1H-indole-3-carboxamide]	–	8.52
COc1ccc(NC(=O)c2c[nH]c3c2C(=O)C(C)(C)CC3)c(F)c1 [Compound 30, N-(2-Fluoro-4-methoxyphenyl)-4-oxo-5,5-dimethyl-4,5,6,7-tetrahydro-1H-indole-3-carboxamide]	–	8.00
O=C(Nc1ccccc1)c1c[nH]c2c1C(=O)CCC2 [Compound 35, N-Phenyl-4-oxo-4,5,6,7-tetrahydro-1H-indole-3-carboxamide]	–	8.70
O=C(Nc1ccccc1F)c1c[nH]c2c1C(=O)CCC2 [Compound 46, N-(2-Fluorophenyl)-4-oxo-4,5,6,7-tetrahydro-1H-indole-3-carboxamide]	–	8.52
O=C(Nc1ccccc1O)c1c[nH]c2c1C(=O)CCC2 [Compound 62, N-(2-Hydroxyphenyl)-4-oxo-4,5,6,7-tetrahydro-1H-indole-3-carboxamide]	–	9.10
Cc1ccc(NC(=O)c2c[nH]c3c2C(=O)CCC3)c(F)c1 [Compound 72, N-(2-Fluoro-4-methylphenyl)-4-oxo-4,5,6,7-tetrahydro-1H-indole-3-carboxamide]	–	7.59
CNc1ccc(NC(=O)c2c[nH]c3c2C(=O)CCC3)cc1 [Compound 74, N-[4-(Methylamino)phenyl]-4-oxo-4,5,6,7-tetrahydro-1H-indole-3-carboxamide]	–	7.74
CC1(C)CCc2[nH]cc(C(=O)Nc3ccccc3)c2C1=O [Compound 80, N-Phenyl-4-oxo-5,5-dimethyl-4,5,6,7-tetrahydro-1H-indole-3-carboxamide]	–	7.51
CC1(C)CCc2[nH]cc(C(=O)Nc3ccccc3F)c2C1=O [Compound 81, N-(2-Fluorophenyl)-4-oxo-5,5-dimethyl-4,5,6,7-tetrahydro-1H-indole-3-carboxamide]	–	7.85
CC1(C)CCc2[nH]cc(C(=O)Nc3ccc(O)cc3)c2C1=O [Compound 86, N-(4-Hydroxyphenyl)-4-oxo-5,5-dimethyl-4,5,6,7-tetrahydro-1H-indole-3-carboxamide]	–	8.70
O=C(Nc1ccccc1F)c1c[nH]c2c1C(=O)CCCC2 [Compound 93, N-(2-Fluorophenyl)-4-oxo-1,4,5,6,7,8-hexahydro-cyclohepta[b]pyrrole-3-carboxamide]	–	8.22
COc1cccc(NC(=O)c2c[nH]c3c2C(=O)CCCC3)c1 [Compound 96, N-(3-Methoxyphenyl)-4-oxo-1,4,5,6,7,8-hexahydro-cyclohepta[b]pyrrole-3-carboxamide]	–	7.54
CCOc1ccc(NC(=O)c2c[nH]c3c2C(=O)CCCC3)c(F)c1 [Compound 102, N-(2-Fluoro-4-ethoxyphenyl)-4-oxo-1,4,5,6,7,8-hexahydro-cyclohepta[b]pyrrole-3-carboxamide]	–	7.43
